# Experimental data reported in US20100317073A1, “MOLECULAR APPROACHES FOR THE OPTIMIZATION OF BIOFUEL PRODUCTION” (The Ohio State University Research Foundation, priority 2007, published 2010).
# Test system: Chlorella protothecoides
# Test: Growth of Chlorella protothecoides in glycerol supplemented media: growth and total lipid yield
# Format: cell-based
# Conditions: glycerol supplemented medium
# Description: Note that Chlorella protothecoides growth is enhanced by glycerol; a byproduct of biodiesel.
smiles,measurement,value
OCC(O)CO [glycerol],increase in growth,at least 10 fold
same,total lipid yield,enhanced
